Test results from US12012411B2, “Viral replication inhibitors” (Katholieke Universiteit Leuven, priority 2011, dated 2024).

Tested on: DENV-2 NGC
Experiment: Antiviral activity against DENV-2 NGC in Vero-B cells (viral RNA load by RT-qPCR)
Format: cell-based, Dengue virus
Details: Dengue virus, DENV2, Vero B, DENV-2 in Vero-B cells; inhibition of viral RNA replication by 50% (Table 3)
With `COc1cccc(NC(C(=O)c2c[nH]c3ccc(S(=O)(=O)N(C)C)cc23)c2ccccc2)c1` (stereo not shown) [CPD-129] the EC50 was 1.09 µM.
`COc1cccc(NC(C(=O)c2c[nH]c3ccccc23)c2ccc(C#N)c(F)c2)c1` (stereo not shown) [CPD-132] gave an EC50 of 0.05 µM.
Work on `COc1cccc(NC(C(=O)c2c[nH]c3cc(O)ccc23)c2ccccc2)c1` (stereo not shown) [CPD-134] yielded an EC50 of 0.46 µM.
`COc1cccc(NC(C(=O)c2c[nH]c3cc(C(=O)O)ccc23)c2ccccc2)c1` (stereo not shown) [CPD-135] showed an EC50 of 40.7 µM.
Compound `COCCn1cc(C(=O)C(Nc2cccc(OC)c2)c2ccccc2)c2ccccc21` (stereo not shown) [CPD-136] has an EC50 of 0.22 µM.
With `COc1cccc(NC(C(=O)c2c[nH]c3cc(CO)ccc23)c2ccccc2)c1` (stereo not shown) [CPD-140] the EC50 was 2.15 µM.
For `CNC(=O)c1cccc(NC(C(=O)c2c[nH]c3ccccc23)c2ccccc2)c1` (stereo not shown) [CPD-170], the EC50 was 0.44 µM.
With `CC(=O)Nc1cccc(NC(C(=O)c2c[nH]c3ccccc23)c2ccccc2)c1` (stereo not shown) [CPD-174] the EC50 was 10.1 µM.
In the case of `O=C(c1c[nH]c2ccccc12)C(Nc1cccc(CO)c1)c1ccccc1` (stereo not shown) [CPD-179], the EC50 is reported as 5.3 µM.
For `CC(NC(C(=O)c1c[nH]c2ccccc12)c1ccccc1)c1ccco1` (stereo not shown) [CPD-180], the EC50 was 57 µM.
`O=C(c1c[nH]c2ccccc12)C(Nc1cccc(N2CCCC2=O)c1)c1ccccc1` (stereo not shown) [CPD-181] showed an EC50 of 4.22 µM.
Work on `O=C(c1c[nH]c2ccccc12)C(NC1CCOc2ccccc21)c1ccccc1` (stereo not shown) [CPD-182] yielded an EC50 of 3.01 µM.
Compound `CCCN1CCC(NC(C(=O)c2c[nH]c3ccccc23)c2ccccc2)CC1` (stereo not shown) [CPD-184] has an EC50 of 22.4 µM.
With `CCc1cccc2c(C(=O)C(Nc3ccc(NC(=O)CN4CCOCC4)cc3)c3ccccc3)c[nH]c12` (stereo not shown) [CPD-186] the EC50 was 4.35 µM.
Work on `NS(=O)(=O)c1cccc(NC(C(=O)c2c[nH]c3ccccc23)c2ccccc2)c1` (stereo not shown) [CPD-187] yielded an EC50 of 3.18 µM.
With `CN(Cc1ccco1)C(C(=O)c1c[nH]c2ccccc12)c1ccccc1` (stereo not shown) [CPD-189] the EC50 was 0.93 µM.
`O=C(c1c[nH]c2ccccc12)C(NCC1COc2ccccc2O1)c1ccccc1` (stereo not shown) [CPD-190] gave an EC50 of 1.71 µM.
`O=C(c1c[nH]c2ccccc12)C(NC1CCSc2ccccc21)c1ccccc1` (stereo not shown) [CPD-191] gave an EC50 of 2.58 µM.
Work on `CCOc1ccc(NC(C(=O)c2c[nH]c3ccccc23)c2ccccc2)cc1CO` (stereo not shown) [CPD-192] yielded an EC50 of 5.62 µM.
Work on `COc1cccc(NC(C(=O)c2c[nH]c3cccnc23)c2ccccc2)c1` (stereo not shown) [CPD-195] yielded an EC50 of 12.7 µM.
`COc1cccc(NC(C(=O)c2cnc3ccccn23)c2ccccc2)c1` (stereo not shown) [CPD-196] gave an EC50 of 62.6 µM.
`COc1cccc(NC(C(=O)c2cnn3ccccc23)c2ccccc2)c1` (stereo not shown) [CPD-197] gave an EC50 of 3.3 µM.
`COc1cccc(NC(C(=O)c2n[nH]c3ccccc23)c2ccccc2)c1` (stereo not shown) [CPD-198] gave an EC50 of 0.14 µM.
With `COc1cc(NC(C(=O)c2csc3ccccc23)c2cn3ccccc3n2)ccn1` (stereo not shown) [CPD-199] the EC50 was 24.9 µM.
Work on `COc1cccc(NC(C(=O)c2c[nH]c3cnccc23)c2ccccc2)c1` (stereo not shown) [CPD-200] yielded an EC50 of 2.24 µM.
Compound `COc1cccc(NC(C(=O)c2c[nH]c3ccncc23)c2ccccc2)c1` (stereo not shown) [CPD-201] has an EC50 of 12.2 µM.
In the case of `COc1cccc(NC(C(=O)c2csc3c2CCN(C)C3)c2ccccc2)c1` (stereo not shown) [CPD-202], the EC50 is reported as 8.33 µM.
Work on `O=C(c1c[nH]c2ccccc12)C(Nc1ccnc(F)c1)c1ccccc1` (stereo not shown) [CPD-207] yielded an EC50 of 3.83 µM.
`COc1cccc(NC(C(=O)c2cn(S(=O)(=O)c3cn(C)cn3)c3ccccc23)c2ccccc2)c1` (stereo not shown) [CPD-209] showed an EC50 of 1.12 µM.
Compound `CCS(=O)(=O)n1cc(C(=O)C(Nc2cccc(OC)c2)c2ccccc2)c2ccccc21` (stereo not shown) [CPD-211] has an EC50 of 2.83 µM.
With `COc1cccc(NC(C(=O)c2c[nH]c3ccccc23)c2cccnc2OC)c1` (stereo not shown) [CPD-215] the EC50 was 0.16 µM.
In the case of `COc1cccc(NC(C(=O)c2cn(CCN3CCOCC3)c3ccccc23)c2ccccc2)c1` (stereo not shown) [CPD-216], the EC50 is reported as 0.84 µM.
Compound `COc1cccc(NC(C(=O)c2cn(S(=O)(=O)C3CCNCC3)c3ccccc23)c2ccccc2)c1` (stereo not shown) [CPD-217] has an EC50 of 0.25 µM.
`COc1cc(NC(C(=O)c2c[nH]c3ccccc23)c2ccccc2)ccc1C#N` (stereo not shown) [CPD-218] gave an EC50 of 2.39 µM.
In the case of `COc1cccc(NC(C(=O)c2nn(C)c3c2CNCC3)c2ccccc2)c1` (stereo not shown) [CPD-221], the EC50 is reported as 29.3 µM.

Tested on: not listed separately
Experiment: in vitro
Details: African green monkey
Compound `COCCn1cc(C(=O)C(Nc2cccc(OC)c2)c2ccccc2)c2ccccc21` (stereo not shown) [CPD-136] has a CC50 greater than 120 µM.
`COc1cccc(NC(C(=O)c2cn(CCN3CCOCC3)c3ccccc23)c2ccccc2)c1` (stereo not shown) [CPD-216] showed a CC50 greater than 106 µM.

Same assay, conditions: African green monkey, uninfected quiescent Vero-B cells
`COc1cccc(NC(C(=O)c2c[nH]c3ccc(S(=O)(=O)N(C)C)cc23)c2ccccc2)c1` (stereo not shown) [CPD-129] gave a CC50 at 4 days greater than 108 µM.
Compound `COc1cccc(NC(C(=O)c2c[nH]c3ccccc23)c2ccc(C#N)c(F)c2)c1` (stereo not shown) [CPD-132] has a CC50 at 4 days of 12 µM.
`COc1cccc(NC(C(=O)c2c[nH]c3cc(O)ccc23)c2ccccc2)c1` (stereo not shown) [CPD-134] gave a CC50 at 4 days of 49 µM.
Compound `COc1cccc(NC(C(=O)c2c[nH]c3cc(C(=O)O)ccc23)c2ccccc2)c1` (stereo not shown) [CPD-135] has a CC50 at 4 days greater than 124 µM.
Compound `COc1cccc(NC(C(=O)c2c[nH]c3cc(CO)ccc23)c2ccccc2)c1` (stereo not shown) [CPD-140] has a CC50 at 4 days of 53 µM.
For `CNC(=O)c1cccc(NC(C(=O)c2c[nH]c3ccccc23)c2ccccc2)c1` (stereo not shown) [CPD-170], the CC50 at 4 days was 26 µM.
In the case of `CC(=O)Nc1cccc(NC(C(=O)c2c[nH]c3ccccc23)c2ccccc2)c1` (stereo not shown) [CPD-174], the CC50 at 4 days is reported as 61 µM.
`O=C(c1c[nH]c2ccccc12)C(Nc1cccc(CO)c1)c1ccccc1` (stereo not shown) [CPD-179] showed a CC50 at 4 days of 135 µM.
`CC(NC(C(=O)c1c[nH]c2ccccc12)c1ccccc1)c1ccco1` (stereo not shown) [CPD-180] showed a CC50 at 4 days greater than 145 µM.
Work on `O=C(c1c[nH]c2ccccc12)C(Nc1cccc(N2CCCC2=O)c1)c1ccccc1` (stereo not shown) [CPD-181] yielded a CC50 at 4 days greater than 122 µM.
For `O=C(c1c[nH]c2ccccc12)C(NC1CCOc2ccccc21)c1ccccc1` (stereo not shown) [CPD-182], the CC50 at 4 days was 12 µM.
`CCCN1CCC(NC(C(=O)c2c[nH]c3ccccc23)c2ccccc2)CC1` (stereo not shown) [CPD-184] gave a CC50 at 4 days of 70 µM.
For `CCc1cccc2c(C(=O)C(Nc3ccc(NC(=O)CN4CCOCC4)cc3)c3ccccc3)c[nH]c12` (stereo not shown) [CPD-186], the CC50 at 4 days was 40 µM.
`NS(=O)(=O)c1cccc(NC(C(=O)c2c[nH]c3ccccc23)c2ccccc2)c1` (stereo not shown) [CPD-187] showed a CC50 at 4 days of 58 µM.
Compound `CN(Cc1ccco1)C(C(=O)c1c[nH]c2ccccc12)c1ccccc1` (stereo not shown) [CPD-189] has a CC50 at 4 days greater than 145 µM.
In the case of `O=C(c1c[nH]c2ccccc12)C(NCC1COc2ccccc2O1)c1ccccc1` (stereo not shown) [CPD-190], the CC50 at 4 days is reported as 11 µM.
Compound `O=C(c1c[nH]c2ccccc12)C(NC1CCSc2ccccc21)c1ccccc1` (stereo not shown) [CPD-191] has a CC50 at 4 days of 13 µM.
Work on `CCOc1ccc(NC(C(=O)c2c[nH]c3ccccc23)c2ccccc2)cc1CO` (stereo not shown) [CPD-192] yielded a CC50 at 4 days of 50 µM.
`COc1cccc(NC(C(=O)c2c[nH]c3cccnc23)c2ccccc2)c1` (stereo not shown) [CPD-195] showed a CC50 at 4 days of 65 µM.
Compound `COc1cccc(NC(C(=O)c2cnc3ccccn23)c2ccccc2)c1` (stereo not shown) [CPD-196] has a CC50 at 4 days greater than 139 µM.
For `COc1cccc(NC(C(=O)c2cnn3ccccc23)c2ccccc2)c1` (stereo not shown) [CPD-197], the CC50 at 4 days was greater than 139 µM.
With `COc1cccc(NC(C(=O)c2n[nH]c3ccccc23)c2ccccc2)c1` (stereo not shown) [CPD-198] the CC50 at 4 days was 16 µM.
In the case of `COc1cc(NC(C(=O)c2csc3ccccc23)c2cn3ccccc3n2)ccn1` (stereo not shown) [CPD-199], the CC50 at 4 days is reported as greater than 120 µM.
`COc1cccc(NC(C(=O)c2c[nH]c3cnccc23)c2ccccc2)c1` (stereo not shown) [CPD-200] showed a CC50 at 4 days of 54 µM.
With `COc1cccc(NC(C(=O)c2c[nH]c3ccncc23)c2ccccc2)c1` (stereo not shown) [CPD-201] the CC50 at 4 days was 74 µM.
Compound `COc1cccc(NC(C(=O)c2csc3c2CCN(C)C3)c2ccccc2)c1` (stereo not shown) [CPD-202] has a CC50 at 4 days of 104 µM.
In the case of `O=C(c1c[nH]c2ccccc12)C(Nc1ccnc(F)c1)c1ccccc1` (stereo not shown) [CPD-207], the CC50 at 4 days is reported as 16 µM.
`COc1cccc(NC(C(=O)c2cn(S(=O)(=O)c3cn(C)cn3)c3ccccc23)c2ccccc2)c1` (stereo not shown) [CPD-209] gave a CC50 at 4 days greater than 100 µM.
For `CCS(=O)(=O)n1cc(C(=O)C(Nc2cccc(OC)c2)c2ccccc2)c2ccccc21` (stereo not shown) [CPD-211], the CC50 at 4 days was greater than 111 µM.
For `COc1cccc(NC(C(=O)c2c[nH]c3ccccc23)c2cccnc2OC)c1` (stereo not shown) [CPD-215], the CC50 at 4 days was 14 µM.
`COc1cccc(NC(C(=O)c2cn(S(=O)(=O)C3CCNCC3)c3ccccc23)c2ccccc2)c1` (stereo not shown) [CPD-217] showed a CC50 at 4 days of 11 µM.
In the case of `COc1cc(NC(C(=O)c2c[nH]c3ccccc23)c2ccccc2)ccc1C#N` (stereo not shown) [CPD-218], the CC50 at 4 days is reported as 13 µM.
For `COc1cccc(NC(C(=O)c2nn(C)c3c2CNCC3)c2ccccc2)c1` (stereo not shown) [CPD-221], the CC50 at 4 days was 80 µM.
